Data on 14 molecules can be found in patent US11589590B2, “Antimicrobial coatings and methods of making and using thereof” (GEORGIA TECH RESEARCH CORPORATION, priority 2016, dated 2023).

Molecules are shown by their SMILES.

Data set [1] is described as follows: Fragmentation of pyridine adducts in deuterated aqueous buffer followed by 1H NMR. Format: physicochemical. The source says:
The fragmentation of cationic adducts was followed by ^1H NMR in deuterated buffer, with the relative concentration of each species established by integration of unique resonances. Each adduct in Table 3 and Table 4 was thus examined in three independent runs. […]

The test system of the next data set is CHO-K1 cells. The data set is classed as cell-based. As to conditions: for concentrations at which nontoxic: Chinese hamster. The protocol: Approximately 1×10^4 CHO-K1 cells/well were plated in a 96-well plate in 100 μL of complete growth media, and adhered overnight at 37° C. The media was then replaced by 100 μL of polymer or monomer in serum-free media at the indicated concentration. Full media was replenished after 4 or 24 h. Viability was measured by MTT assay, with non-treated cells assigned as 100% viability. The results are plotted in FIGS. 11A-11D and 12A-12H.

[2] abbreviates: pseudo first order fragmentation at 50° C., deuterated buffer.
[3] abbreviates: pseudo first order fragmentation at 37° C.

The molecule `COC(=O)c1ccc[n+](C2CCC3SC2CCC3[n+]2cccc(C(=O)OC)c2)c1.O=[N+]([O-])[O-].O=[N+]([O-])[O-]` (centres unmarked) [Compound 5b, 2,6-di-3-methoxycarbonylpyridinium-9-thiabicyclo[3.3.1]nonane dinitrate] gave a krel in data set [1] (50° C., relative to 5e = 1.00) of 1.86. Also, in data set [1] (setting [2]), the kfrag result is on record as “(3.03 ± 0.38) × 10^−2 h^−1”.
As for `COC(=O)c1cc[n+](C2CCC3SC2CCC3[n+]2ccc(C(=O)OC)cc2)cc1.O=[N+]([O-])[O-].O=[N+]([O-])[O-]` (centres unmarked) [Compound 5c, 2,6-di-4-methoxycarbonylpyridinium-9-thiabicyclo[3.3.1]nonane dinitrate], the krel in data set [1] (37° C., relative to 5i = 1) amounted to 0.3; in data set [1] (50° C., relative to 5e = 1.00), 2.25. The kfrag entry in data set [1] (setting [3]) is “(0.16 ± 0.01) × 10^−2 h^−1”; in data set [1] (setting [2]), “(3.66 ± 0.33) × 10^−2 h^−1”. Also, the “concentration up to which no effect (toxicity)” value with CHO-K1 cells was no less than 500 µM.
In the case of `NC(=O)c1ccc[n+](C2CCC3SC2CCC3[n+]2cccc(C(N)=O)c2)c1.O=[N+]([O-])[O-].O=[N+]([O-])[O-]` (centres unmarked) [Compound 5d, 2,6-di-3-carbamylpyridinium-9-thiabicyclo[3.3.1]nonane dinitrate], in data set [1] (50° C., relative to 5e = 1.00), the krel is given as 1.95. The kfrag entry in data set [1] (setting [2]) is on record as “(3.18 ± 0.32) ×10^−2 h^−1”.
Molecule `NC(=O)c1cc[n+](C2CCC3SC2CCC3[n+]2ccc(C(N)=O)cc2)cc1.O=[N+]([O-])[O-].O=[N+]([O-])[O-]` (centres unmarked) [Compound 5e, 2,6-di-4-carbamylpyridinium-9-thiabicyclo[3.3.1]nonane dinitrate] displayed a krel in data set [1] (50° C., relative to 5e = 1.00) of 1.00. The kfrag entry in data set [1] (setting [2]) is on record as “(1.62 ± 0.10) ×10^−2 h^−1”.
On to `Brc1ccc[n+](C2CCC3SC2CCC3[n+]2cccc(Br)c2)c1.O=[N+]([O-])[O-].O=[N+]([O-])[O-]` (centres unmarked) [Compound 5f, 2,6-di-3-bromopyridinium-9-thiabicyclo[3.3.1]nonane dinitrate], for which the krel in data set [1] (50° C., relative to 5e = 1.00) amounted to 4.05. In data set [1] (setting [2]), the kfrag entry is recorded as “(6.59 ± 0.58) × 10^−2 h^−1”.
Turning to `FC(F)(F)c1ccc[n+](C2CCC3SC2CCC3[n+]2cccc(C(F)(F)F)c2)c1.O=[N+]([O-])[O-].O=[N+]([O-])[O-]` (centres unmarked) [Compound 5g, 2,6-di-3-trifluoromethylpyridinium-9-thiabicyclo[3.3.1]nonane dinitrate], the krel in data set [1] (37° C., relative to 5i = 1) came to 11; in data set [1] (50° C., relative to 5e = 1.00) it was 46.2. Besides, the kfrag entry in data set [1] (setting [3]) was “(5.87 ± 0.71) × 10^−2 h^−1”; in data set [1] (setting [2]), “(74.8 ± 5.4) × 10^−2 h^−1”.
As to `N#Cc1ccc[n+](C2CCC3SC2CCC3[n+]2cccc(C#N)c2)c1.O=[N+]([O-])[O-].O=[N+]([O-])[O-]` (centres unmarked) [Compound 5h, 2,6-di-3-cyanopyridinium-9-thiabicyclo[3.3.1]nonane dinitrate], the krel worked out at 2.1 in data set [1] (37° C., relative to 5i = 1) and 6.68 in data set [1] (50° C., relative to 5e = 1.00). The kfrag entry in data set [1] (setting [3]) is “(1.14 ± 0.16) × 10^−2 h^−1”; in data set [1] (setting [2]), “(10.8 ± 0.98) × 10^−2 h^−1”.
Turning to `COc1cc(Br)c[n+](C2CCC3SC2CCC3[n+]2cc(Br)cc(OC)c2)c1.O=[N+]([O-])[O-].O=[N+]([O-])[O-]` (centres unmarked) [Compound 5i, 2,6-di-3-bromo-5-methoxylpyridinium-9-thiabicyclo[3.3.1]nonane dinitrate], the krel in data set [1] (37° C., relative to 5i = 1) is reported as 1; in data set [1] (50° C., relative to 5e = 1.00), 4.64. For the same molecule, the kfrag result in data set [1] (setting [3]) is given as “(0.55 ± 0.04) × 10^−2 h^−1”; in data set [1] (setting [2]) it was “(7.51 ± 0.53) × 10^−2 h^−1”. Further, the “concentration up to which no effect (toxicity)” value with CHO-K1 cells is no less than 500 µM.
Consider `NC(=O)c1cc(Br)c[n+](C2CCC3SC2CCC3[n+]2cc(Br)cc(C(N)=O)c2)c1.O=S(=O)([O-])C(F)(F)F.O=S(=O)([O-])C(F)(F)F` (centres unmarked) [Compound 5j, 2,6-di-3-bromo-5-carbamylpyridinium-9-thiabicyclo[3.3.1]nonane ditriflate], for which the krel in data set [1] (37° C., relative to 5i = 1) is given as 17. In addition, the kfrag result in data set [1] (setting [3]) was “(9.34 ± 0.87) × 10^−2 h^−1”.
`COC(=O)c1cc(C(=O)OC)c[n+](C2CCC3SC2CCC3[n+]2cc(C(=O)OC)cc(C(=O)OC)c2)c1.O=S(=O)([O-])C(F)(F)F.O=S(=O)([O-])C(F)(F)F` (centres unmarked) [Compound 5k, 2,6-di-3,5-dimethoxycarbonylpyridinium-9-thiabicyclo[3.3.1]nonane ditriflate] registered a krel in data set [1] (37° C., relative to 5i = 1) of 22. Besides, the kfrag entry in data set [1] (setting [3]) is listed as “(11.9 ± 1.13) × 10^−2 h^−1”.
`COC(=O)c1cc(Br)c[n+](C2CCC3SC2CCC3[n+]2cc(Br)cc(C(=O)OC)c2)c1.O=S(=O)([O-])C(F)(F)F.O=S(=O)([O-])C(F)(F)F` (centres unmarked) [Compound 5l, 2,6-di-3-bromo-5-methoxycarbonylpyridinium-9-thiabicyclo[3.3.1]nonane ditriflate] gave a krel in data set [1] (37° C., relative to 5i = 1) of 20. In addition, the kfrag entry in data set [1] (setting [3]) is on record as “(10.9 ± 1.81) × 10^−2 h^−1”.
Regarding `c1cc(CCCc2ccncc2)ccn1` [monomer 2a], the “concentrations at which nontoxic” value in the data set with CHO-K1 cells was “below 500 μM”.
As for `O=C(OCCCOC(=O)c1ccncc1)c1ccncc1` [monomer 2c], the “concentrations at which nontoxic” value in the data set with CHO-K1 cells was “below 500 μM”.
Regarding `Brc1cncc(OCCCOc2cncc(Br)c2)c1` [monomer 2i, 1,3-bis((5-bromopyridin-3-yl)oxy)propane], the “concentrations at which nontoxic” value in the data set on CHO-K1 cells is given as “below 500 μM”.
